According to patent US20150253323A1, “METHODS AND KITS FOR HIGH THROUGHPUT SCREENING FOR COMPOUNDS TARGETING DNA-BINDING AND RNA-BINDING PROTEINS” (The Florida International University Board of Trustees, priority 2014, published 2015):
Entries after “also recorded” stand apart in the source; their conditions may differ. Counter-ions that a name gives are not always drawn. Starred links: 1 amine or outer side, 2 acyl side, 3 side chain; linkers in the order of their positions; H or OH if unused. Positions of bridges follow the written chain, without caps; N, C: chain ends. Non-standard residues stand in square brackets, D forms with d. Residues, ends and D or L forms follow the SMILES beside them. Chains are numbered I, II in the order given. Actinocin(9to1) = Cc1c2oc3c(C)ccc(C(=O)[*:1])c3nc-2c(C(=O)[*:2])c(N)c1=O; NMeV = CN[C@H](C(=O)O)C(C)C; Sar = CNCC(=O)O

System: HMGA2-FL814 interaction
Assay: PDI-ELISA for HMGA2 binding to DNA oligomer FL814
Set-up: species or system mammalian
Details: for OD450 of the PDI-ELISA in the presence of the compound: 100 nM compound, 100 nM FL814, 1 μM HMGA2, 2×SSCT, OD450 without drug 1.44; for IC50: 25° C., read-out: IC50 for inhibition of binding of HMGA2 to DNA; for inhibition of HMGA2-FL814 interactions: compound at 100 nM in 2×SSCT, FIG. 12 / Table 1

Compound | OD450 of the PDI-ELISA in the presence of the compound | other results
CN(C)c1ccc2nc3ccc(=[N+](C)C)cc-3sc2c1 [Methylene Blue, methylene blue] | 0.93 | 
Nc1ccc2cc3ccc(N)cc3nc2c1 [Proflavine hydrochloride, proflavine hydrochloride] |  | OD450 of the PDI-ELISA in the presence of the compound (hydrochloride): 1.5
COc1cc2cc3c4cc(OC)c(OC)cc4cc[n+]3c(C)c2cc1OC.[Cl-] [Coralyne chloride, coralyne chloride] | 1.38 | 
Cc1c2ccncc2c(C)c2c1[nH]c1ccccc12 [Ellipticine] | 1.39 | 
C[n+]1ccccc1-c1c2nc(c(-c3cccc[n+]3C)c3ccc([nH]3)c(-c3cccc[n+]3C)c3nc(c(-c4cccc[n+]4C)c4ccc1[nH]4)C=C3)C=C2.[Cl-].[Cl-].[Cl-].[Cl-] [TMPyP2] | 1.7 | enhancement of HMGA2 binding to FL814 (OD450) (titration, 100 nM FL814, 1 μM HMGA2, FIG. 14): not able to stimulate
N=C(N)c1ccc(-c2cc3ccc(C(=N)N)cc3[nH]2)cc1 [DAPI] | 0.161 | IC50: 60.6 ± 8.5 nM; inhibition of HMGA2-FL814 interactions: potently inhibit; also recorded: completely inhibit
CN(C)c1ccc(C(=C2C=CC(=[N+](C)C)C=C2)c2ccc([N+](C)(C)C)cc2)cc1.[Cl-].[Cl-] [Methyl Green, methyl green] | 1.06 | 
COc1cccc2c1C(=O)c1c(O)c3c(c(O)c1C2=O)C[C@@](O)(C(C)=O)C[C@@H]3O[C@H]1C[C@H](NCc2ccc(CN[C@H]3C[C@H](O[C@H]4C[C@](O)(C(C)=O)Cc5c(O)c6c(c(O)c54)C(=O)c4c(OC)cccc4C6=O)O[C@@H](C)[C@H]3O)cc2)[C@H](O)[C@H](C)O1 [WP631] | 0.21 | IC50: 41 ± 4.5 nM; inhibition of HMGA2-FL814 interactions: potently inhibit; also recorded: completely inhibit
COC1C(O)CC(OC2CC(Oc3cc4cc5c(c(O)c4c(O)c3C)C(=O)[C@@H](OC3CC(OC4CC(OC6CC(C)(O)C(OC(C)=O)C(C)O6)C(O)C(C)O4)C(O)C(C)O3)[C@H]([C@H](OC)C(=O)[C@@H](O)[C@@H](C)O)C5)OC(C)C2OC(C)=O)OC1C (stereo partly drawn) [Chromomycin, chromomycin] | 1.3 | 
COc1ccc2cc3[n+](cc2c1OC)CCc1cc2c(cc1-3)OCO2 [Berberine chloride, berberine chloride] | 0.91 | 
CN1CCN(c2ccc3[nH]c(-c4ccc5[nH]c(-c6ccc(O)cc6)nc5c4)nc3c2)CC1 [Hoechst 33258] | 0.166 | IC50: 73 ± 9.6 nM; inhibition of HMGA2-FL814 interactions: potently inhibit; also recorded: completely inhibit
CN1C(=Cc2cc[n+](C)c3ccccc23)Sc2ccccc21 [Thiazole orange, thiazole orange] | 1.83 | 
N-methyl mesoporphyrin [NMM 580] | 1.62 | 
Cc1c2oc3c(C)ccc(C(=O)N[C@@H]4C(=O)N[C@H](C(C)C)C(=O)N5CCC[C@H]5C(=O)N(C)CC(=O)N(C)[C@@H](C(C)C)C(=O)O[C@@H]4C)c3nc-2c(C(=O)N[C@@H]2C(=O)N[C@H](C(C)C)C(=O)N3CCC[C@H]3C(=O)N(C)CC(=O)N(C)[C@@H](C(C)C)C(=O)O[C@@H]2C)c(N)c1=O [Actinomycin D, actinomycin D] (I: T[dV]P[Sar][NMeV] / II: T[dV]P[Sar][NMeV]; ester I:1-I:C, II:1-II:C; linker I:N-II:N via Actinocin(9to1)) | 1.03 | 
N=C(N)c1ccc(OCCCCCOc2ccc(C(=N)N)cc2)cc1 [Pentamidine, pentamidine isethionate salt] | 0.65 | 
Nc1ccc2cc3ccc(N)cc3nc2c1 [Proflavine hemisulfate, proflavine hemisulfate] | 1.49 | 
CC(=O)NCC(=O)O.CC(=O)NCC(=O)O.N=C(N)c1ccc(N=NNc2ccc(C(=N)N)cc2)cc1 [Berenil, berenil] | 0.52 | 
CCN1/C(=C/C=C/C=C/c2oc3ccccc3[n+]2CC)Oc2ccccc21.[I-] [DODC] | 1.3 | 
Cl.NCc1ccc2ccc3cccc4ccc1c2c34 [1-Pyrenemethylamine hydrochloride, 1-pyrenemethylamine hydrochloride] | 1.36 | 
CCN(CC)CCCC(C)Nc1c2ccc(Cl)cc2nc2ccc(OC)cc12 (stereo not drawn) [Quinacrine dihydrochloride, quinacrine dihydrochloride] | 1.46 | 
O=c1cc(-c2ccccc2)oc2c1ccc1ccccc12 [a-Naphthoflavone, α-naphthoflavone] | 1.91 | 
O=C1c2ccc3c4ccc5c6c(ccc(c7ccc(c2c37)C(=O)N1CCN1CCCCC1)c64)C(=O)N(CCN1CCCCC1)C5=O [PIPER, N,N′-bis[2-(1-piperidino)ethyl]-3,4,9,10-perylenetetracarboxylic diimide] | 1.27 | 
COc1cccc2c1C(=O)c1c(O)c3c(c(O)c1C2=O)C[C@@](O)(C(C)=O)C[C@@H]3O[C@H]1C[C@H](NCc2cccc(CN[C@@H]3C[C@@H](O[C@H]4C[C@](O)(C(C)=O)Cc5c(O)c6c(c(O)c54)C(=O)c4c(OC)cccc4C6=O)O[C@H](C)[C@@H]3O)c2)[C@H](O)[C@H](C)O1 [WP762] | 0.56 | IC50: 115 ± 19.7 nM; inhibition of HMGA2-FL814 interactions: potently inhibit
O=c1cc(-c2ccccc2)oc2ccc3ccccc3c12 [b-Naphthoflavone, β-naphthoflavone] | 1.56 | 
